Legend:
hTGR5 = target: T1, hTGR5 (Homo sapiens, UniProt Q8TDU6); test: TGR5/CRE Luciferase Assay (hTGR5); format: cell-based; settings: for EC50: HEK 293 cells co-transfected with pCMV tag4b-TGR5h and pCRE TA-Luciferase, overnight incubation; for hTGR5 % trans: percentage of the 10 μM LCA value, HEK 293 cells transfected with hTGR5
T1 construct: expressed in transfected cells; host or cells: HEK293 cells, transiently co-transfected with the pCRE TA-Luciferase reporter
T1 sequence (Q8TDU6 1-330): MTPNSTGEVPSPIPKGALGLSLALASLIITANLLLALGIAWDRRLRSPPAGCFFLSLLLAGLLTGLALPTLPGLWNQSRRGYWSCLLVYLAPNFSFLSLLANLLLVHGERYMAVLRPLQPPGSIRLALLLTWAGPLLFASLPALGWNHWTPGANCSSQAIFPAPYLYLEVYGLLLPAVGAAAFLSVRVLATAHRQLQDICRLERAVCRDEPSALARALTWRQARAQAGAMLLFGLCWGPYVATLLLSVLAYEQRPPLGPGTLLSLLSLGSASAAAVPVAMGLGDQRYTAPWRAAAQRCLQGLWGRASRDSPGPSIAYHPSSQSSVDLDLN
Method in brief: (§1)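 cAMP-dependent luciferase luminescence was measured after overnight compound exposure (duplicate concentration series) and fitted to a four-parameter logistic equation. Cells: HEK293 transiently co-expressing hTGR5 or mTGR5 with a CRE reporter; lithocholic acid at 10 μM was the reference agonist.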

mTGR5 = target: T2, mTGR5 (Mus musculus, UniProt Q80SS6); test: TGR5/CRE Luciferase Assay (mTGR5); format: cell-based; settings: for EC50: HEK 293 cells co-transfected with pCMV AC6-TGR5m and pCRE TA-Luciferase, overnight incubation; for mTGR5 % trans: percentage of the 10 μM LCA value, HEK 293 cells transfected with mTGR5
T2 construct: expressed in transfected cells; host or cells: HEK293 cells, transiently co-transfected with the pCRE TA-Luciferase reporter
T2 sequence (Q80SS6 1-329): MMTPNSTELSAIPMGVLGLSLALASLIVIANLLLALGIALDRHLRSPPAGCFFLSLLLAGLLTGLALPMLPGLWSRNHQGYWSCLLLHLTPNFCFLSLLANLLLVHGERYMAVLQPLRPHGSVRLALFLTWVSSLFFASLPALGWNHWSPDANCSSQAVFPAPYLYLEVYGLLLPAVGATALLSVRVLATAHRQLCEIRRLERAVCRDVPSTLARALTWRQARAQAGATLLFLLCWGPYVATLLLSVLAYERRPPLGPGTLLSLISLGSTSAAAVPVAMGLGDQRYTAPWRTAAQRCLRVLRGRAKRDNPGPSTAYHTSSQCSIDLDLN
Method in brief: as §1

EC50 (hTGR5) [nM] | hTGR5 % trans (hTGR5) [%] | EC50 (mTGR5) [nM] | mTGR5 % trans (mTGR5) [%] | Structure (SMILES)
3510 | 36 | 4300 | 44 | COCCC1=C(C(=O)OCc2ccccc2)C(c2ccc(Cl)cc2)CC(=O)N1 (centres unmarked) [Compound 22, benzyl 4-(4-chlorophenyl)-6-(2-methoxyethyl)-2-oxo-3,4-dihydro-1H-pyridine-5-carboxylate]
160 | 103 | 100 | 113 | CC1=C(C(=O)OCc2ccc(OCCCS(=O)(=O)O)cc2)[C@H](c2ccc(Cl)nc2)CC(=O)N1C[C@H]1CCCO1.N [Example 166, Ammonium,3-[4-[[(4S)-4-(6-chloro-3-pyridyl)-6-methyl-2-oxo-1-[[(2R)-tetrahydrofuran-2-yl]methyl]-3,4-dihydropyridine-5-carbonyl]oxymethyl]phenoxy]propane-1-sulfonate]
600 | 77 | 1100 | 55 | COCCN1C=C(C(=O)OCc2ccccc2)C(c2ccc(Cl)cc2)CC1=O (centres unmarked) [Compound 32, Benzyl 4-(4-chlorophenyl)-1-(2-methoxyethyl)-2-oxo-3,4-dihydropyridine-5-carboxylate]
2900 | 71 | 12300 | 73 | COCCN1C(=O)CC(c2ccc(Cl)cc2)C(C(=O)N2CCCc3ccccc32)=C1C (centres unmarked) [Example 77, 4-(4-chlorophenyl)-5-(3,4-dihydro-2H-quinoline-1-carbonyl)-1-(2-methoxyethyl)-6-methyl-3,4-dihydropyridin-2-one]
350 | 78 | 450 | 77 | CC1=C(C(=O)OCc2cccnc2)[C@H](c2ccc(Cl)cc2)CC(=O)N1C[C@H]1CCCO1 (racemic) [Example 146, 3-pyridylmethyl (4S)-4-(4-chlorophenyl)-6-methyl-2-oxo-1-[[(2R)-tetrahydrofuran-2-yl]methyl]-3,4-dihydropyridine-5-carboxylate and 3-pyridylmethyl (4R)-4-(4-chlorophenyl)-6-methyl-2-oxo-1-[[(2S)-tetrahydrofuran-2-yl]methyl]-3,4-dihydropyridine-5-carboxy late]
5000 | 22 |  | 14 | CC1=C(C(=O)OCc2ccccc2)C(c2ccccc2C(F)(F)F)CC(=O)N1 (centres unmarked) [Compound 7, 2-Methyl-6-oxo-4-(2-trifluoromethyl-phenyl)-1,4,5,6-tetrahydro-pyridine-3-carboxylic acid benzyl ester]
500 | 85 | 400 | 95 | COCCN1C(=O)CC(c2ccc(Cl)cc2)C(C(=O)OCc2cccc(OC)c2)=C1C (centres unmarked) [Example 103, (3-methoxyphenyl)methyl 4-(4-chlorophenyl)-1-(2-methoxyethyl)-6-methyl-2-oxo-3,4-dihydropyridine-5-carboxylate]
3600 | 50 |  | 3 | CC1=C(C(=O)OCc2ccccc2)C(c2ccc(Cl)cc2)CC(=O)N1CCN1CCCCC1 (centres unmarked) [Compound 56, Benzyl 4-(4-chlorophenyl)-6-methyl-2-oxo-1-[2-(1-piperidyl)ethyl]-3,4-dihydropyridine-5-carboxylate]
1400 | 17 | 2800 | 10 | COCCN1C(=O)CC(c2ccc(-c3ccccc3)cc2)C(C(=O)OCc2ccccc2)=C1C (centres unmarked) [Example 123, Benzyl 1-(2-methoxyethyl)-6-methyl-2-oxo-4-(4-phenylphenyl)-3,4-dihydropyridine-5-carboxylate]
300 | 59 | 400 | 77 | CC1=C(C(=O)OCc2ccccc2)C(c2ccc(Cl)cc2)CC(=O)N1CC1CCC1 (centres unmarked) [Compound 44, Benzyl 4-(4-chlorophenyl)-1-(cyclobutylmethyl)-6-methyl-2-oxo-3,4-dihydropyridine-5-carboxylate]
70 | 65 | 80 | 102 | COc1ccccc1COC(=O)C1=C(C)N(CC2CC2)C(=O)CC1c1ccc(Cl)cc1 (centres unmarked) [Compound 70, o-methoxybenzyl 4-(4-chlorophenyl)-1-(cyclopropylmethyl)-6-methyl-2-oxo-3,4-dihydropyridine-5-carboxylate]
1200 | 71 | 600 | 83 | COCCN1C(=O)CC(c2ccc(Cl)cc2)C(C(=O)OCc2ccncc2)=C1C (centres unmarked) [Example 107, 4-pyridylmethyl 4-(4-chlorophenyl)-1-(2-methoxyethyl)-6-methyl-2-oxo-3,4-dihydropyridine-5-carboxylate]
500 | 86 | 1300 | 62 | CC1=C(C(=O)OCc2ccc(F)cc2Cl)C(c2ccc(Cl)cc2)CC(=O)N1C (centres unmarked) [Example 81, (2-chloro-4-fluoro-phenyl)methyl 4-(4-chlorophenyl)-1,6-dimethyl-2-oxo-3,4-dihydropyridine-5-carboxylate]
400 | 76 | 400 | 76 | COCCN1C(=O)CC(c2ccc(Cl)cc2)C(C(=O)OCc2ccc(C(=O)OC)cc2)=C1C (centres unmarked) [Example 97, (4-methoxycarbonylphenyl)methyl 4-(4-chlorophenyl)-1-(2-methoxyethyl)-6-methyl-2-oxo-3,4-dihydropyridine-5-carboxylate]
320 | 92 |  | 86 | COc1ccccc1COC(=O)C1=C(C)N(C[C@@H]2CCCO2)C(=O)C[C@@H]1c1ccc(Cl)nc1 [Example 162, (2-M ethoxyphenyl)-methyl-(4R)-4-(6-chloro-3-pyridyl)-6-methyl-2-oxo-1-[[(2S)-tetrahydrofuran-2-yl]methyl]-3,4-dihydropyridine-5-carboxylate]
1100 | 57 | 1300 | 34 | COCCN1C(=O)CC(c2ccc(Cl)cc2)C(C(=O)OCc2ccccc2C(F)(F)F)=C1C (centres unmarked) [Example 90, [2-(trifluoromethyl)phenyl]methyl 4-(4-chlorophenyl)-1-(2-methoxyethyl)-6-methyl-2-oxo-3,4-dihydropyridine-5-carboxylate]
600 | 72 | 400 | 89 | COCCN1C(=O)CC(c2ccc(Cl)cc2)C(C(=O)OCc2ccc(C)cc2)=C1C (centres unmarked) [Example 100, p-tolylmethyl 4-(4-chlorophenyl)-1-(2-methoxyethyl)-6-methyl-2-oxo-3,4-dihydropyridine-5-carboxylate]

From patent publication US9932309B2, “2-oxo-3,4-dihydropyridine-5-carboxylates and their use” (UNIVERSITE DE LILLE 2 DROIT ET SANTE, priority 2014, dated 2018)
